Assay results as given in patent US12187728B2 (Raze Therapeutics, Inc., priority 2015, dated 2025).

Target: T1, Human MTHFD2 (Homo sapiens, UniProt P13995)
T1 construct: residues 36-350 in Uniport ID P13995; His6 (N); made in house; host or cells: E. coli
T1 sequence (P13995 36-350): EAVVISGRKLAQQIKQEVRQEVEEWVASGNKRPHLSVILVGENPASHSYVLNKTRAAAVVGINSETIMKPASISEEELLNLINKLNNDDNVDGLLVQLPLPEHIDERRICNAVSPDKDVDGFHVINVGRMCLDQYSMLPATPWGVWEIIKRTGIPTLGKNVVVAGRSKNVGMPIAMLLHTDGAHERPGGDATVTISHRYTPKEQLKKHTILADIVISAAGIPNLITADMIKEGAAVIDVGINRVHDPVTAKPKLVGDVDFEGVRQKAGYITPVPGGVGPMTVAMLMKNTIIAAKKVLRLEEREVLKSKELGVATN
Test: MTHFD2 Activity Assay (dehydrogenase activity, diaphorase/resazurin coupled fluorescence)
Assay type: biochemical
Conditions: inhibitory activity (IC50 and/or binding constant); 0.2 nM MTHFD2, 11 concentrations
Description: Human MTHFD2 (residues 36-350 in Uniport ID P13995) was expressed as an N-terminal His6 tagged protein and purified in E. coli using nickel capture followed by size-exclusion chromatography.
MTHFD2 dehydrogenase activity oxidizes methylene tetrahyrofolate to methenyl-tetrahydrofolate with the concomitant reduction of NAD to NADH. MTHFD2 dehydrogenase activity was followed by coupling the generation of NADH to diaphorase catalyzed […] of resazurin to fluorescent resorufin. Briefly, control (DMSO) or compound was incubated with 0.2 nM MTHFD2 for 15 minutes in 10.5 μl assay buffer containing 100 mM Hepes, pH 8.0, 5 mM MgCl2, 5 mM KH2PO4, 0.05% BSA, 0.01% Tween-20 in a 384 well Griener, low volume, black plate. 10 μl of substrate buffer containing 70 μM CH2-THF, 1 mM NAD^+, 100 μM Resazurin and 0.42 mg/ml diaphorase was then added to initiate the reaction and the reaction plate was incubated for 30 minutes. 5 μl of 250 mM EDTA was then added to each well to stop the reaction and MTHFD2 activity was quantified by measuring resorufin fluorescence emission at 598 nm following excitation at 525 nm. Activity in positive control wells containing the complete reaction mixture and DMSO alone was set to 100% while activity in negative control wells with the complete reaction mix without MTHFD2 was set to 0%. 11 concentrations of each compound were tested and the fluorescent data at each concentration was normalized to the positive and negative controls and represented as % inhibition. Median inhibitory concentration (IC50) was calculated by fitting % inhibition at each concentration to a 4 parameter logistic fit equation using Graphpad Prizm.
The compound numbers correspond to the compound numbers in Table A (i.e., the example numbers).

SMILES	IC50
Cc1cccc2cc(Cn3c(=O)c4c(nc(Nc5ccncc5)n4C)n(C)c3=O)[nH]c12 [Example 365, 3,7-dimethyl-1-[(7-methyl-1H-indol-2-yl)methyl]-8-(4-pyridylamino)purine-2,6-dione]	0.01 to 1 µM
Cn1c(N[C@H]2C[C@H](C(=O)O)C2)nc2c1c(=O)n(Cc1ccc(Cl)c(Cl)c1)c(=O)n2C [Example 266]	0.01 to 1 µM
Cn1c(NC2CCC(C)(O)C2)nc2c1c(=O)n(Cc1ccc(Cl)c(Cl)c1)c(=O)n2C (racemic) [Example 164, 1-[(3,4-dichlorophenyl)methyl]-8-[(3-hydroxy-3-methylcyclopentyl)amino]-3,7-dimethyl-2,3,6,7-tetrahydro-1H-purine-2,6-dione]	0.01 to 1 µM
Cn1c(Nc2ccc3c(c2)CC(CO)C3)nc2c1c(=O)n(Cc1ccc(Cl)c(Cl)c1)c(=O)n2C (stereo not shown) [Example 324, 1-(3,4-dichlorobenzyl)-8-((2-(hydroxymethyl)-2,3-dihydro-1H-inden-5-yl)amino)-3,7-dimethyl-1H-purine-2,6(3H,7H)-dione]	1 to 5 µM
C[C@H](O)CNc1nc2c(c(=O)n(Cc3ccc(Cl)c(Cl)c3)c(=O)n2C)n1C [Example 8, 1-[(3,4-dichlorophenyl)methyl]-8-{[(2S)-2-hydroxypropyl]amino}-3,7-dimethyl-2,3,6,7-tetrahydro-1H-purine-2,6-dione]	0.01 to 1 µM
Cn1c(NCCCO)nc2ncn(Cc3ccc(Cl)c(Cl)c3)c(=O)c21 [Example 167, 1-[(3,4-dichlorophenyl)methyl]-8-[(3-hydroxypropyl)amino]-7-methyl-6,7-dihydro-1H-purin-6-one]	> 10 µM
Cn1c(NC(C(=O)O)C2CCCCC2)nc2c1c(=O)n(Cc1ccc(C(F)(F)F)cc1)c(=O)n2C (stereo not shown) [Example 151, 2-cyclohexyl-2-((3,7-dimethyl-2,6-dioxo-1-(4-(trifluoromethyl)benzyl)-2,3,6,7-tetrahydro-1H-purin-8-yl)amino)acetic acid]	> 10 µM
Cn1c(N[C@H]2CC[C@@H](O)C2)nc2c1c(=O)n(Cc1cc3cc(Cl)ccc3[nH]1)c(=O)n2C (racemic) [Example 175, (±)-1-((5-chloro-1H-indol-2-yl)methyl)-8-((cis)-3-hydroxycyclopentylamino)-3,7-dimethyl-1H-purine-2,6(3H,7H)-dione]	0.01 to 1 µM
Cn1c(NCCCCO)nc2c1c(=O)n(Cc1ccc(Cl)c(Cl)c1)c(=O)n2C [Example 28, 1-[(3,4-dichlorophenyl)methyl]-8-[(4-hydroxybutyl)amino]-3,7-dimethyl-2,3,6,7-tetrahydro-1H-purine-2,6-dione]	0.01 to 1 µM
COCCNc1nc2c(c(=O)n(Cc3ccc(Cl)c(Cl)c3)c(=O)n2C)n1C [Example 273, 1-[(3,4-dichlorophenyl)methyl]-8-(2-methoxyethylamino)-3,7-dimethyl-purine-2,6-dione]	1 to 5 µM
Cn1c(N[C@H]2CCC[C@@H](O)C2)nc2c1c(=O)n(Cc1ccc(Cl)c(Cl)c1)c(=O)n2C (single isomer, unassigned) [Example 78, 1-(3,4-dichlorobenzyl)-8-((1S,3R)-3-hydroxycyclohexylamino)-3,7-dimethyl-1H-purine-2,6(3H,7H)-dione or 1-(3,4-dichlorobenzyl)-8-((1R,3S)-3-hydroxycyclohexylamino)-3,7-dimethyl-1H-purine-2,6(3H,7H)-dione]	0.01 to 1 µM
Cn1c(N[C@H]2CC[C@@H](C(=O)O)C2)nc2c1c(=O)n(Cc1ccc3sccc3c1)c(=O)n2C [Example 87, (1R,3S)-3-{[1-(1-benzothiophen-5-ylmethyl)-3,7-dimethyl-2,6-dioxo-2,3,6,7-tetrahydro-1H-purin-8-yl]amino}cyclopentane-1-carboxylic acid]	0.01 to 1 µM
Cc1ccc2c(c1)cc(Cn1c(=O)c3c(ncn3C)n(C)c1=O)n2C [Example 233, 1-((1,5-dimethyl-1H-indol-2-yl)methyl)-3,7-dimethyl-1H-purine-2,6(3H,7H)-dione]	5 to 10 µM
Cn1c(CC(=O)O)nc2c1c(=O)n(Cc1ccc(Cl)c(Cl)c1)c(=O)n2C [Example 101, 2-(1-(3,4-dichlorobenzyl)-3,7-dimethyl-2,6-dioxo-2,3,6,7-tetrahydro-1H-purin-8-yl)acetic acid]	5 to 10 µM
Cn1c(NCCS(N)(=O)=O)nc2c1c(=O)n(Cc1ccc(Cl)c(Cl)c1)c(=O)n2C [Example 102, 2-(1-(3,4-dichlorobenzyl)-3,7-dimethyl-2,6-dioxo-2,3,6,7-tetrahydro-1H-purin-8-ylamino)ethanesulfonamide]	5 to 10 µM
Cn1c(NC[C@@H]2CCCO2)nc2c1c(=O)n(Cc1ccc(C(F)(F)F)cc1)c(=O)n2C [Example 105, (S)-3,7-dimethyl-8-((tetrahydrofuran-2-yl)methylamino)-1-(4-(trifluoromethyl)benzyl)-1H-purine-2,6(3H,7H)-dione]	> 10 µM
Cn1c(Nc2ccc(CO)cc2)nc2c1c(=O)n(Cc1ccc(Cl)c(Cl)c1)c(=O)n2C [Example 298, 1-(3,4-dichlorobenzyl)-8-((4-(hydroxymethyl)phenyl)amino)-3,7-dimethyl-3,7-dihydro-1H-purine-2,6-dione]	0.01 to 1 µM

The remaining lines, values ahead:

IC50	SMILES
0.01 to 1 µM	Cn1c(Nc2cccc(N)n2)nc2c1c(=O)n(Cc1ccc(Cl)c(Cl)c1)c(=O)n2C [Example 150, 8-(6-aminopyridin-2-ylamino)-1-(3,4-dichlorobenzyl)-3,7-dimethyl-1H-purine-2,6(3H,7H)-dione]
0.01 to 1 µM	Cn1c(NC2CCNC2=O)nc2c1c(=O)n(Cc1cc3ccccc3[nH]1)c(=O)n2C (racemic) [Example 222, (±)-1-((1H-indol-2-yl)methyl)-3,7-dimethyl-8-(2-oxopyrrolidin-3-ylamino)-1H-purine-2,6(3H,7H)-dione]
0.01 to 1 µM	CC(c1nc2c(c(=O)n(Cc3cc4c(Cl)cccc4[nH]3)c(=O)n2C)n1C)N(C)C (stereo not shown) [Example 457, 1-[(4-chloro-1H-indol-2-yl)methyl]-8-[1-(dimethylamino)ethyl]-3,7-dimethyl-purine-2,6-dione]
0.01 to 1 µM	Cn1c(Nc2cc[nH]c(=O)n2)nc2c1c(=O)n(Cc1cc3ccccc3[nH]1)c(=O)n2C [Example 189, 1-((1H-indol-2-yl)methyl)-3,7-dimethyl-8-(2-oxo-1,2-dihydropyrimidin-4-ylamino)-1H-purine-2,6(3H,7H)-dione]
0.01 to 1 µM	Cn1c(Nc2cc[nH]c(=O)n2)nc2c1c(=O)n(Cc1cc3cc(Cl)ccc3[nH]1)c(=O)n2C [Example 206, 1-((5-chloro-1H-indol-2-yl)methyl)-3,7-dimethyl-8-(2-oxo-1,2-dihydropyrimidin-4-ylamino)-1H-purine-2,6(3H,7H)-dione]
0.01 to 1 µM	Cn1c(C2CNCCO2)nc2c1c(=O)n(Cc1cc3c(Cl)cccc3[nH]1)c(=O)n2C (stereo not shown) [Example 453, 1-[(4-chloro-1H-indol-2-yl)methyl]-3,7-dimethyl-8-morpholin-2-yl-purine-2,6-dione]
0.01 to 1 µM	Cn1c(Nc2cccc(C(=O)O)c2)nc2c1c(=O)n(Cc1cc3c(Cl)cccc3[nH]1)c(=O)n2C [Example 346, 3-[[1-[(4-chloro-1H-indol-2-yl)methyl]-3,7-dimethyl-2,6-dioxo-purin-8-yl]amino]benzoic acid]
0.01 to 1 µM	COC(=O)c1ccc(Nc2nc3c(c(=O)n(Cc4cc5c(Cl)cccc5[nH]4)c(=O)n3C)n2C)cn1 [Example 408, Methyl 5-(1-((4-chloro-1H-indol-2-yl)methyl)-3,7-dimethyl-2,6-dioxo-2,3,6,7-tetrahydro-1H-purin-8-ylamino)picolinate]
0.01 to 1 µM	Cn1c(Nc2ccncc2)nc2c1c(=O)n(Cc1cc3cc(Cl)ccc3[nH]1)c(=O)n2C [Example 176, 1-((5-chloro-1H-indol-2-yl)methyl)-3,7-dimethyl-8-(pyridin-4-ylamino)-1H-purine-2,6(3H,7H)-dione]
0.01 to 1 µM	Cn1c(C(N)C2CCCC2)nc2c1c(=O)n(Cc1cc3c(Cl)cccc3[nH]1)c(=O)n2C (stereo not shown) [Example 464, 8-(amino(cyclopentyl)methyl)-1-((4-chloro-1H-indol-2-yl)methyl)-3,7-dimethyl-3,7-dihydro-1H-purine-2,6-dione]
0.01 to 1 µM	Cn1c(Nc2ccnc(CCC(=O)N3CCCC3)n2)nc2c1c(=O)n(Cc1cc3c(Cl)cccc3[nH]1)c(=O)n2C [Example 417, 1-((4-chloro-1H-indol-2-yl)methyl)-3,7-dimethyl-8-(2-(3-oxo-3-(pyrrolidin-1-yl)propyl)pyrimidin-4-ylamino)-1H-purine-2,6(3H,7H)-dione]
